Results from paper PMC4938799, “LD Motif Recognition by Talin: Structure of the Talin-DLC1 Complex” (Structure(London, England:1993), 2016).
Read-outs that look alike come from different tables or passages of the source. Ends that are not written are not given here.

Key:
talin R8 domain = target: T1, talin R8 domain (Mus musculus, UniProt P26039); test: 1H,15N-HSQC NMR titration of talin R8 with peptides; assay type: binding
T1 construct: conducted using 0.1 mM [^15N]talin R8 domain; hexa-histidine tag followed by TEV protease cleavage site (N, cleaved yes); made in house; host or cells: E. coli BL21 STAR (DE3)
T1 sequence (P26039 1461-1580 limits assumed): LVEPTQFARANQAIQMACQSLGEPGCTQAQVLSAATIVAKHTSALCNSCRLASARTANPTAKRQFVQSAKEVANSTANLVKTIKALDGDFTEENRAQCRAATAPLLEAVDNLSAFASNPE
Protocol: NMR spectra were collected on Bruker Avance III 600- and 800-MHz spectrometers equipped with CryoProbes. Experiments were performed at 298 K in 20 mM sodium phosphate (pH 6.5) and 50 mM NaCl with 5% (v/v) ^2H2O. Dissociation constants were evaluated from the ^1H,^15N-HSQC chemical-shift changes in the titration experiments conducted using 0.1 mM [^15N]talin R8 domain. Peptides were added from 5- to 10-mM stock solutions to generate titration points at peptide/protein ratios 0.1, 0.2, 0.5, 0.75, 1, 2, 4, and 8.
NMR Spectroscopy - Spectra were processed with TopSpin (Bruker) and analysed using CCPN Analysis (Vranken et al., 2005). […] The changes in chemical shift of 15N-talin R8 domain were calculated from 1H,15N-HSQC spectra as Δδ=√(ΔδH2+(ΔδN*0.15)2). The cross-peaks corresponding to the bound state were assigned by following chemical shift changes throughout the R8 titration with the increasing amount of peptides.
Dissociation constants were evaluated from the 1H,15N-HSQC chemical shift changes in the titration experiments conducted using 0.1 mM 15N-talin R8 domain. Peptides were added from 5-10 mM stock solutions to generate titration points at 0.1, 0.2, 0.5, 0.75, 1, 2, 4 and 8 peptide:protein ratios.
Concentrations of the DLC1 and RIAM peptides were determined from UV absorbance at 280 nm. […]
Concentration of the R8 domain that lacks UV-active aromatic residues was estimated from the comparison with the spectra of the R3 domain that has similar molecular weight and shape using the calibration procedure described in (Wider and Dreier, 2006). Dissociation constants were determined by fitting the chemical shift changes to the equation:
( ) ( ) [𝑃] + [𝐿] + 𝐾𝑑 − √([𝑃] + [𝐿] + 𝐾𝑑)2 − 4[𝑃][𝐿] where ∆(𝐻, 𝑁)0 is the weighted chemical shift difference at saturation, [P] and [L] are protein and ligand concentrations, respectively. Data were fitted independently for the well-resolved peaks and the average Kd was calculated from 3 different peaks with the lowest standard deviations of the fits. […]

[1] = Solubility of peptides and protein fragments; assay type: physicochemical

ENEDIFPELDDILYHVKGMQRIVNQWSEK [DLC1(461–489)]
Kd (talin R8 domain; read-out: KD determined by fitting chemical-shift changes): 48 µM

MDDLDALLADLESTTS [paxillin LD1]
Kd (talin R8 domain): 168 µM

DLC1(467–489): synthetic DLC1 peptide, residues 467–489; shorter fragment used for crystallization
chemical-shift changes / broadening of talin R8 on peptide addition (talin R8 domain; 1H,15N-HSQC, talin R8, 298 K, pH 6.5, 4-fold excess of peptide (DLC1(467–489), paxillin LD1) or titration): large chemical-shift changes | solubility [1]: less soluble than the longer fragment
